PMC5622171 (Nature Communications, 2017)
“Also recorded” adds a separate entry of the source.

Columns and labels:
[1] = tested on: LS180 cells with stable exogenous expression of hPXR; assay: CellTiter-Glo cytotoxicity assay; settings: 10 µM SPA70
Experimental: For the LS180, SNU-C4 and LS1034 cytotoxicity assays, cells were seeded in a 96-well plate (Corning) at 4000 cells per well. […] Cell viability was assessed using the CellTiter-Glo assay.

[2] = tested on: hPXR transcriptional target genes; assay: DNA microarray analysis in primary human hepatocytes; format: cell-based; settings: 2.5 μM SPA70, 48 h
Text: In each case, total RNA was extracted using a Qiagen RNeasy Mini Kit and amplified and labeled by using an One-Color Low Input Quick Amp Labeling Kit (Agilent, Santa Clara, CA, catalog no. 5190-2305), after which it was hybridized to the SurePrint G3 Human GE 8 × 60 K microarray (Agilent-028004), which contains 42,545 unique probes targeting 27,958 Entrez genes. Microarrays were scanned with an Agilent array scanner (G2565CA) at 3-μm resolution. Microarray data were extracted by Agilent Feature Extraction software (v10.5.1.1). Quantile normalization of log-transformed, background-subtracted signal intensity was performed for all samples. This was followed by comparisons between sets of replicates from different experimental groups. Student’s t-test was used to determine the statistical significance of the difference between the paired samples from three replicates of each experiment. […] The data processing and PCA analysis were performed using Partek software (St. Louis, MO)[52]. The GEO accession number for the microarray analysis is GSE90122.

hCAR = target: T1, hCAR (Homo sapiens, UniProt Q14994); assay: hCAR transactivation assay, inverse agonistic mode; format: cell-based
T1 construct: expressed in transfected cells; host or cells: HepG2
T1 sequence (Q14994 whole entry): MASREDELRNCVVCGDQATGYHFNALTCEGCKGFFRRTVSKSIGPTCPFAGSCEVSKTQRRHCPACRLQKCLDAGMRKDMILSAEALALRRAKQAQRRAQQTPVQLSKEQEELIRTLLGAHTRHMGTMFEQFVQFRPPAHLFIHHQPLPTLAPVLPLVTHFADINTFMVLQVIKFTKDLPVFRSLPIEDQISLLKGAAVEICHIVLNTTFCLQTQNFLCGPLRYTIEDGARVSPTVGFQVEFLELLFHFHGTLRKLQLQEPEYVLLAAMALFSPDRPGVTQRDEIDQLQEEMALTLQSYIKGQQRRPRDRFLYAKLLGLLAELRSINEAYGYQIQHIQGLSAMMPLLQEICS
Experimental: The hCAR transactivation assays were performed as described previously[48]. […] The relative luciferase activity was determined by normalizing the firefly luciferase signal to the Renilla luciferase signal and was used to represent the ‘relative activity of CAR’. The final DMSO concentration was 0.4% in all assays.

Hepa 1-6 cells = assay: One- and 3-day cytotoxicity assay; format: cell-based, mouse; settings: Hepa 1-6, one- and 3-day
Experimental: After the plated had been incubated for 24 or 72 h at 37 °C, the cytotoxicity was determined using a CellTiter-Glo luminescent cell viability assay (Promega). […] The final DMSO concentration was 0.5% for all wells.

PRKCI = target: T2, PRKCI (Homo sapiens, UniProt P41743); assay: KINOMEscan kinase profiling; format: binding; settings: read-out: %Inhibition by 10 μM SPA70
T2 construct: purchased DiscoverX (Ambit Biosciences) KINOMEscan
T2 sequence (P41743 whole entry): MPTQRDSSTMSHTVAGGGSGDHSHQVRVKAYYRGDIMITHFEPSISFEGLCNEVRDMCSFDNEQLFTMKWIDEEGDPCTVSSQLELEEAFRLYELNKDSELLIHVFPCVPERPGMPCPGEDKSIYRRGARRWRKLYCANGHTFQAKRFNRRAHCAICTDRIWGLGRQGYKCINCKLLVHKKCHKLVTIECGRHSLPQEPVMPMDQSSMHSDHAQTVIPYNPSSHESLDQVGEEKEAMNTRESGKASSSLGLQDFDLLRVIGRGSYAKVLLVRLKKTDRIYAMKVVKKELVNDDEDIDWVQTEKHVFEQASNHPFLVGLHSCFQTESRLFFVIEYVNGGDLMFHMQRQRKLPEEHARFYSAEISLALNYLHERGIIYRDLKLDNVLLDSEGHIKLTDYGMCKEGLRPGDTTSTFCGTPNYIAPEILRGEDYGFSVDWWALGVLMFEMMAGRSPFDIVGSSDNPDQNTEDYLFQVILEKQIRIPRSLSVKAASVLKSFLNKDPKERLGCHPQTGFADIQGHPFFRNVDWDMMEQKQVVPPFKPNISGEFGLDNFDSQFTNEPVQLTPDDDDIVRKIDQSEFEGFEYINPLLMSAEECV
Experimental: (§1) Kinase inhibition profiling assays. The kinase inhibition profiling assay (KINOMEscan) was performed by Ambit Biosciences, now part of DiscoveryX (Fremont, CA) in accordance with the […]
(§2) published protocol20, 21. […] If the inhibition of a kinase was greater […]
(§3) dilutions) starting from 30 µM.

DAPK3 = target: T3, DAPK3 (Homo sapiens, UniProt O43293); assay: KINOMEscan kinase profiling; format: binding; settings: read-out: %Inhibition by 10 μM SPA70
T3 construct: purchased DiscoverX (Ambit Biosciences) KINOMEscan
T3 sequence (O43293 whole entry): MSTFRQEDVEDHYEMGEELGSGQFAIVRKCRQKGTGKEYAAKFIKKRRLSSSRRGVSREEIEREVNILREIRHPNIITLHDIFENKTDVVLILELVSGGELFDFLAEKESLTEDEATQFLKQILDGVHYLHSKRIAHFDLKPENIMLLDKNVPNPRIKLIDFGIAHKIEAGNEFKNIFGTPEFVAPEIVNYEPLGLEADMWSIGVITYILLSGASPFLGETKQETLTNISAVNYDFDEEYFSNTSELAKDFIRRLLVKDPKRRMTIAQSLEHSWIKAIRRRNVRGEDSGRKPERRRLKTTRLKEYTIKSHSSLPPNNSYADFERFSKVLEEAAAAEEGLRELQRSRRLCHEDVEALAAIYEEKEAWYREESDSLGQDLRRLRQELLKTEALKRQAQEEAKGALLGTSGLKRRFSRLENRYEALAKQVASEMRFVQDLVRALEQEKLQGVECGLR
Experimental: as §1, §2, §3

MLCK = target: T4, MLCK (Homo sapiens, UniProt Q32MK0); assay: KINOMEscan kinase profiling; format: binding; settings: read-out: %Inhibition by 10 μM SPA70
T4 construct: purchased DiscoverX (Ambit Biosciences) KINOMEscan
Experimental: as §1, §2, §3

ERK2 = target: T5, ERK2 (Homo sapiens, UniProt P28482); assay: KINOMEscan kinase profiling; format: binding; settings: read-out: %Inhibition by 10 μM SPA70
T5 construct: purchased DiscoverX (Ambit Biosciences) KINOMEscan
T5 sequence (P28482 whole entry): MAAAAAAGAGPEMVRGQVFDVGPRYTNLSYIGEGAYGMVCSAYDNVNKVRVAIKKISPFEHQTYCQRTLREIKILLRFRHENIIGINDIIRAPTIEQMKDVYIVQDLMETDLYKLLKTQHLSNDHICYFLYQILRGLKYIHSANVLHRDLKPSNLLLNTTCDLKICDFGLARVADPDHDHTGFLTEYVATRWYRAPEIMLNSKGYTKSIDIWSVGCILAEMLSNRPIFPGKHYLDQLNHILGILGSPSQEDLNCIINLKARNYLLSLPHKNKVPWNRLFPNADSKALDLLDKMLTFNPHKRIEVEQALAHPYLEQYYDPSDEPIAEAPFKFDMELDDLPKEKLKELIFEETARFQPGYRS
Experimental: as §1, §2, §3

MLK3 = target: T6, MLK3 (Homo sapiens, UniProt Q16584); assay: KINOMEscan kinase profiling; format: binding
T6 construct: purchased DiscoverX (Ambit Biosciences) KINOMEscan
T6 sequence (Q16584 whole entry): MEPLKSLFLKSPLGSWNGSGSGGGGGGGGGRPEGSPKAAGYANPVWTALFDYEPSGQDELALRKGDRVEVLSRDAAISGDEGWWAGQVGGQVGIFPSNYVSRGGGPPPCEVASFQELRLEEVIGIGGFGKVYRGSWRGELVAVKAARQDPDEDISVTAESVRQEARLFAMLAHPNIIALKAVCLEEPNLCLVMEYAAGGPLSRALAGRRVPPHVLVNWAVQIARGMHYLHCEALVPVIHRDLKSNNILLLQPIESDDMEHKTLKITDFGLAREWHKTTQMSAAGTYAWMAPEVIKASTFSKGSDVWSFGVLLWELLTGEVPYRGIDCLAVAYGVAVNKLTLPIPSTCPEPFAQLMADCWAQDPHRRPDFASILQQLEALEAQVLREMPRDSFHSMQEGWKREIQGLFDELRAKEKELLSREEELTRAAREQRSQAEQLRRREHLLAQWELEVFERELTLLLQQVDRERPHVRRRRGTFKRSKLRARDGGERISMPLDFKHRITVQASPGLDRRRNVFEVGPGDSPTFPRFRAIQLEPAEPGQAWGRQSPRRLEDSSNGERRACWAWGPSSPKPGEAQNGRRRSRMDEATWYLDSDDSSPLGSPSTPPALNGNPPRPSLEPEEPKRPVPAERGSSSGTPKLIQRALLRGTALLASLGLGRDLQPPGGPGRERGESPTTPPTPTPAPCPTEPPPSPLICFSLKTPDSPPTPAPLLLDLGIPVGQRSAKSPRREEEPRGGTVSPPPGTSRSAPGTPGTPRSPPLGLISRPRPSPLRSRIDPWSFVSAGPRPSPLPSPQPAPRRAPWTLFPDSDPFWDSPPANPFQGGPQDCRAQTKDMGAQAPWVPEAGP
Experimental: as §1, §2, §3

CSNK2A2 = target: T7, CSNK2A2 (Homo sapiens, UniProt P19784); assay: KINOMEscan kinase profiling; format: binding; settings: read-out: %Inhibition by 10 μM SPA70
T7 construct: purchased DiscoverX (Ambit Biosciences) KINOMEscan
T7 sequence (P19784 whole entry): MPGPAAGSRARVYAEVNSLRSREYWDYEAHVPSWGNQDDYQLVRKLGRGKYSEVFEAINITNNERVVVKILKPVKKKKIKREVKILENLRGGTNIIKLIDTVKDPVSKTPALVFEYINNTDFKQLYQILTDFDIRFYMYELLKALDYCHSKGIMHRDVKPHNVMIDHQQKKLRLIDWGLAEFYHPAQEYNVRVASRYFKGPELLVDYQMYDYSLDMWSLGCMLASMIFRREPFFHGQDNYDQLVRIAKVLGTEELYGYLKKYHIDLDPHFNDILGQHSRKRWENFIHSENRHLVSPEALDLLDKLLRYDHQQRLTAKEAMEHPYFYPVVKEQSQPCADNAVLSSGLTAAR
Experimental: as §1, §2, §3

CDK5 = target: T8, CDK5 (Homo sapiens, UniProt Q00535); assay: KINOMEscan kinase profiling; format: binding
T8 construct: purchased DiscoverX (Ambit Biosciences) KINOMEscan
T8 sequence (Q00535 whole entry): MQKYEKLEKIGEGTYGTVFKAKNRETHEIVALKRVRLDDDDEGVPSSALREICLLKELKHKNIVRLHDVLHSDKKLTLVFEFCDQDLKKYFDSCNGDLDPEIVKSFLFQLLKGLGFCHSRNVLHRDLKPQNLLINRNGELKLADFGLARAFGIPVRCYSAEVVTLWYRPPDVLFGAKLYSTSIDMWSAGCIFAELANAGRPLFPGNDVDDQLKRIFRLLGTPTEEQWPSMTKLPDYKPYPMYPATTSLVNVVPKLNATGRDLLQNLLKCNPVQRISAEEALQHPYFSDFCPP
Experimental: as §1, §2, §3

EPHB1 = target: T9, EPHB1 (Homo sapiens, UniProt P54762); assay: KINOMEscan kinase profiling; format: binding; settings: read-out: %Inhibition by 10 μM SPA70
T9 construct: purchased DiscoverX (Ambit Biosciences) KINOMEscan
T9 sequence (P54762 18-984): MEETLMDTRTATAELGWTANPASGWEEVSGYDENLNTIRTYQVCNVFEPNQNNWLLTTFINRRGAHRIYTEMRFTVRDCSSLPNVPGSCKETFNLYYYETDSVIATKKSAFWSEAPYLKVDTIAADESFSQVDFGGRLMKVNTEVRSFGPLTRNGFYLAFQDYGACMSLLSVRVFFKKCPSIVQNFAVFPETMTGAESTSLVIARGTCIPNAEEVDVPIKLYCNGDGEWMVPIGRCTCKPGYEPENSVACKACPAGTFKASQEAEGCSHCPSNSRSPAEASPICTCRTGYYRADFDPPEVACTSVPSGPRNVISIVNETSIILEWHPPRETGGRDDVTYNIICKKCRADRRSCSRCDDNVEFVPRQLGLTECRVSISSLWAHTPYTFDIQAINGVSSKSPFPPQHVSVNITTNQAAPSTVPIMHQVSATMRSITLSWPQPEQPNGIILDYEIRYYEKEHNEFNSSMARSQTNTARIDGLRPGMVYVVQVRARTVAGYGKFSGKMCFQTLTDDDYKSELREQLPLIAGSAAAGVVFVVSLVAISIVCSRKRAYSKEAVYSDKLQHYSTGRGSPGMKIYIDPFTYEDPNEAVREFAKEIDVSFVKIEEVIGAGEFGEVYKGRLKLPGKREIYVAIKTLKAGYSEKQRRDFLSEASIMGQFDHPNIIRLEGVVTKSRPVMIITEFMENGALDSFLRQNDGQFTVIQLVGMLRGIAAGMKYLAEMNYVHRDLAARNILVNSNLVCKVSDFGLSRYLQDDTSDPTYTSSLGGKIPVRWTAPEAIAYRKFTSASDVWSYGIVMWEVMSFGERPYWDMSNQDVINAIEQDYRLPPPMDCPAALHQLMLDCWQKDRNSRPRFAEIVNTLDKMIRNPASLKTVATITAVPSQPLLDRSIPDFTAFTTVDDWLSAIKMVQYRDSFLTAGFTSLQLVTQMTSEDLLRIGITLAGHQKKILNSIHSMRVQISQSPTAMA
Experimental: as §1, §2, §3

hPXR–NCoR = target: T10, hPXR–NCoR (Homo sapiens, UniProt O75469); format: biochemical
T10 construct: 5 nM GST-hPXR-LBD; purchased Thermo Fisher Scientific
T10 sequence (O75469 146-433 limits assumed): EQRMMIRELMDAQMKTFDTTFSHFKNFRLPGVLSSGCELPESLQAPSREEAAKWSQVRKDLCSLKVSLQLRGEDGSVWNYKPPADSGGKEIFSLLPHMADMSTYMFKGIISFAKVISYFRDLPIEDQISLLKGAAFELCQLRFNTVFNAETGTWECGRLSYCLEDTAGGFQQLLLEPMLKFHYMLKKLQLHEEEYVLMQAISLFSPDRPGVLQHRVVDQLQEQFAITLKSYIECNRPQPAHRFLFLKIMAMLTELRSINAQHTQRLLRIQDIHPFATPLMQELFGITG
T10 sequence (O75376 2256-2278 partner limits assumed): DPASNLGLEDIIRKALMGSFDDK

CYP3A4 = CYP3A4 protein levels in primary human hepatocytes (western blot); format: cell-based
Experimental: Cells were rinsed once with cold PBS then lysed in RIPA lysis buffer (Thermo Fisher Scientific) containing protease inhibitor (Roche). Mouse liver samples were homogenized in 500 μl of cold RIPA lysis buffer in a Bullet Blender Blue homogenizer (Next Advance, Averill Park, NY). Then, 25 μg of total protein lysates were loaded onto NuPAGE 4%–12% Bis-Tris gels (Invitrogen) with NuPAGE MES SDS running buffer (Invitrogen). The proteins were transferred from the gel to a nitrocellulose membrane by using the iBlot gel-transfer system (Invitrogen). The membrane was then blocked for 1 h with Odyssey Blocking Buffer (LI-COR Biosciences, Lincoln, NE) and probed with mouse monoclonal antibodies against CYP3A4 (K03; stock concentration: 2.5 mg ml^−1, diluted 1:5000)[51], MDR1 (D-11; Cat. No. sc-55510, Santa Cruz Biotechnology, Santa Cruz, CA; stock concentration: 0.2 mg ml^−1, diluted 1:1500), hPXR (H-11; Cat. No. sc-48340, Santa Cruz Biotechnology; stock concentration: 0.2 mg ml^−1, diluted 1:400), mouse Cyp3a (Cat. No. MAB10041, Millipore, Temecula, CA; Lot No. 1957980, diluted 1:1000), or β-actin (Cat. No. A5441, Sigma; Lot No. 043M4840V, diluted 1:5000). […] The relative intensity of each protein band was then determined by normalizing the intensity of each protein band to that of actin. […]

Cyp3a11 = assay: Loss of righting reflex (LORR) assay in hPXR-tg mice; format: in vivo, mouse; settings: hPXR humanized mice, SPA70 200 mg kg−1 i.p., RIF 10 mg kg−1
Experimental: The LORR assay method has been described previously, by using 2,2,2-tribromoethanol, a substrate of mouse Cyp3a11 which is induced by hPXR. Mice were first injected intraperitoneally with 250 mg kg^−1 of 2,2,2-tribromoethanol, then placed on their backs under a heat lamp as soon as they lost their righting reflex. The LORR duration was defined as the time period from the start of LORR to when mice could right themselves twice within 1 min, after being placed on their backs. For each mouse, a baseline LORR duration was first established before oral administration of vehicle or compounds. […] A paired Student’s t-test was used to compare the LORR duration at baseline and after treatment. A P-value of less than 0.05 was considered to indicate a significant difference between the compared groups.

COc1ccc(OC)c(-n2nnc(S(=O)(=O)c3ccc(C(C)(C)C)cc3)c2C)c1 [SPA70]
Effect on paclitaxel sensitivity of LS180 cells with exogenous hPXR [1]: re-sensitized the cells to paclitaxel | Effect on induction of hPXR transcriptional target genes by rifampicin, SR12813 and T090137 [2]: blocked their induction | Effect on basal activity of CAR (hCAR): very weak CAR inverse agonist; also recorded: very weakly inhibited the basal activity | Cytotoxicity (Hepa 1-6 cells): marginal cytotoxicity | inhibition at 10 µM (PRKCI): 0% | inhibition at 10 µM (DAPK3): 0% | inhibition at 10 µM (MLCK): 0% | inhibition at 10 µM (ERK2): 0% | %Inhibition by 10 μM SPA70 (MLK3): 18% | inhibition at 10 µM (CSNK2A2): 10% | %Inhibition by 10 μM SPA70 (CDK5): not inhibited | inhibition at 10 µM (CDK5; read-out: %Inhibition by 10 μM SPA70): 0% | inhibition at 10 µM (EPHB1): 0% | Effect on hPXR–NCoR interactions (hPXR–NCoR): enhanced the hPXR–NCoR interactions | Effect on CYP3A4 induction by SR12813 and T090137 (CYP3A4; 2.5 μM SPA70, 0.1 μM SR12813 or 0.03 μM T090137, 48 h): able to block the CYP3A4-inducing effect | Effect on CYP3A4 induction by rifampicin (CYP3A4; 2.5 μM SPA70, 1 μM rifampicin, 48 h): substantially blocked | Effect on rifampicin-induced metabolism of 2,2,2-tribromoethanol by Cyp3a11 (LORR) (Cyp3a11): effectively blocked
